Consider three molecules from patent EP4772500A1, “NOVEL ISOXAZOLE COMPOUND AS TM4SF5-SPECIFIC INHIBITOR AND USE THEREOF” (Seoul National University R&DB Foundation, priority 2023, dated 2025).

Experiment [1] has as its system SNU761-TM4SF5. Description: Western blotting of SLAMF7 expression, TM4SF5-expressing SNU761 cells. The class given is cell-based, human. The following applies: for expression level of SLAMF7 (WCL): whole-cell lysates, 24 hours (FIG. 15e-f). The method, then: Cell extracts were obtained from cells grown to a density of 70-80% without any treatment, or from cells treated with vehicle DMSO or drugs at the given concentrations for 24 hours. For the extract of hepatocytes or liver cancer cells, a lysis buffer (150 mM NaCl, 1% NP-40, 50 mM Tris-HCl, 0.25% sodium deoxycholate, pH 7.4) including a protease inhibitor cocktail (GenDEPOT) was used. In addition, after washing animal liver tissue twice with PBS, SDS, Na3VO4, and protease inhibitor cocktails (GenDEPOT) were added to a lysis buffer [50 mM Tris-HCl, pH 7.4, 1% NP40, 0.25% sodium deoxycholate, 150 mM NaCl, 1 mM EDTA (based on 500 ml)], followed by treatment at 4°C for 15 minutes. After centrifugation at 13,000 rpm at 4°C for 30 minutes, only the supernatant was transferred to a new microcentrifuge tube. After quantification using BCA reagent (Thermo Scientific), a 4 × sample buffer [100% glycerol 4 ml, Tris-HCl, pH 6.8, 2.4 ml, SDS 0.8 g, Bromophenol blue 4 mg, betamercaptoethanol 0.4 ml, H2O 3.1 ml (based on 10 ml)] was added, followed by boiling at 100°C for 5 minutes. After performing SDS-PAGE electrophoresis with the above samples and transferring them to Nitrocellulose Membranes Protran™ nitrocellulose membranes (Whatman), pre-treatment was performed with 5% skim milk for 1 hour. After pre-treatment, primary antibodies of p-FAK(Y861) (SC-16663), p-FAK(Y577) (SC-16665), c-Src (SC-8056), STAT3 (SC-8019), p-AKT 1/2/3(S473) (SC-7985), STATS (SC-835), Laminin γ2 (SC-393225), COL1A1 (SC-28657), CCL5(RANTES) (SC-514019) CCL20(MIP-3α) (SC-517441), SIRT1 (SC-74465), ChREBP (SC-515922), SREBP1 (SC-366513), DGAT1 (SC-271934), DGAT2 (SC-293211), MICA/B (SC-137242), SLAMF7 (SC-390840), α-tublin (SC-5286), β-actin (SC-47778), FUCA (SC-365496) (the above from Santa Cruz Biotech, USA), p-FAK(Y397) (cat # 611723), FAK (cat # 610088), p27 (cat # 610242) (the above from BD Transduction, USA), p-FAK(Y925) (#3284) p-c-Src(Y416) (#2101), p-STAT3(Y705) (#9145), p70S6K1 (#9202), p-p70S6K1(T389) (#9205), p-STAT5(Y694) (#9314), ACC (#3676), FASN (#3189), CPT1A (#12252), p-ACC(S79) (#11818), HA (#3724), PD-L1 (#13684), PD-1 (#86163), p-ERK1/2(T202/Y204) (#9101s), ERK1/2 (#9102s) (the above from Cell Signaling Tech., USA), pS10p27(S10) (ab62364), human SLAMF6 (ab224201), TIGIT (ab233404), CD34 (ab81289) (the above from Abcam, UK), mouse SLAMF6 (PA5-87823), NKG2D (PA5-102038) (the above from Thermofisher, USA), α-SMA (Sigma Aldrich, A5228), CCL2 (Invitrogen, MA5-17040), and CD155(PVR) (Biolegend, 337601), HA (Biolegend, USA), Strep-HRP(horse-radish peroxidase), StrepMAB-HRP (IBA, USA), AFP (FineTest, FNab00203) were reacted at 4°C for 15 hours. The next day, secondary antibodies were reacted, and development was performed on X-ray film using ECL (Pierce, USA). […]
After 24 hours, vehicle DMSO, drug ST-1-025, or ST-5-002 was treated at the given concentrations. […] (f) After treating NK92-EV or NK92-TM4SF5 cells with DMSO or drugs ST-2-001 (1 nM), ST-3-005 (10 nM or 1 µM), ST-5-001, or ST-5-002 (100 nM or 1 µM) for 24 hours, the expression of SLAMF7 expressed on the cell surface was analyzed through immunostaining using flow cytometry. The expression level of SLAMF7 was confirmed by adding a SLAMF7 antibody to bind with SLAMF7 and then measuring the fluorescence linked to the SLAMF7 antibody using flow cytometry. […]

For experiment [2], the target named is T1, TM4SF5 (Homo sapiens, UniProt O14894).
T1 sequence (O14894 1-197): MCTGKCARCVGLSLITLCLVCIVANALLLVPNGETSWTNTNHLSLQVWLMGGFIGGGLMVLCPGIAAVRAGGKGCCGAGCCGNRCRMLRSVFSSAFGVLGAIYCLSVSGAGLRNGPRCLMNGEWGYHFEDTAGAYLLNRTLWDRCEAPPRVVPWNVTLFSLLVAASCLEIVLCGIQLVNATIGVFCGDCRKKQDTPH
Description: TM4SF5 expression-dependent animal models (summary statement). It is filed as in vivo. More on the design: expressed in transfected cells; captured on streptavidin agarose. From the text:
In addition, the isoxazole compounds are capable of reversing both (i) an increase in PD-L1 expression and stabilization through direct binding mediated by TM4SF5 and (ii) induction of PD-1 expression in T cells, which suppresses T-cell activation and cancer cell killing functions.

Some results are limits rather than exact numbers.

On to `COc1cccc(-c2cc(-c3ccc(NC(C)=O)cc3)no2)c1` [ST-3-001, N-(4-(5-(3-methoxyphenyl)isoxazole-3-yl)phenyl)acetamide], for which the “expression level of SLAMF7 (WCL)” value in experiment [1] was “did not show a recovery”.
Turning to `CC(=O)Nc1ccc(-c2cc(-c3ccc(O)cc3)no2)cc1` [ST-5-001, N-(4-(3-(4-hydroxyphenyl)isoxazole-5-yl)phenyl)acetamide], in experiment [2], the “doses at which effects were exhibited” value was not above 2.5 mpk.
As to `Cc1ccc(C(=O)Nc2ccc(-c3cc(-c4ccc(O)cc4)no3)cc2)cc1` [ST-5-002, N-(4-(3-(4-hydroxyphenyl)isoxazole-5-yl)phenyl)-4-methylbenzamide], the SLAMF7 expression level result in experiment [1] (SNU761-TM4SF5 (FIG. 13d)) was “less lowered or remained high”. In addition, the “SLAMF7 expression decreased due to TM4SF5” value in experiment [1] (SNU761 with FLAG-SLAMF7 and HA-TM4SF5, given concentrations, 24 hours (FIG. 15d)) is reported as “showed a pattern of recovery”. Moreover, the “expression level of SLAMF7 (WCL)” value in experiment [1] is “increasing again”. For the same molecule, the “doses at which effects were exhibited” value in experiment [2] is on record as not above 2.5 mpk.
